Results taken from patent publication US20170232083A1, “METHODS OF DIAGNOSIS AND TREATMENT OF CELIAC DISEASE IN CHILDREN” (priority 2014, published 2017).
“And” between values parts separate entries of the source, which are not always exact repeats. Equal values may be shown once. Non-standard residues stand in square brackets, D forms with d. pGlu = O=C1CC[C@@H](C(=O)O)N1

Test system: peripheral blood mononuclear cells obtained from children
Assay: IFNγ ELISpot PBMC assay after oral wheat bread challenge (Examples 1-2)
Format: cell-based, human
Conditions: for T cell response in PBMC samples from children after gluten challenge: general increase in SFU in each child, Tables 2-5
Description: An oral wheat bread challenge was conducted in DQ2.5+ children and adolescents having Celiac disease. The age ranges were 3-5, 6-10 and 11-18 years of age. An ELISpot peripheral blood mononucleated cell (PBMC) assay was performed to measure the level of IFNγ released by the PBMCs after being contacted with peptide 1, peptide 2, peptide 3, or a combination thereof. The identities of peptides 1, 2, and 3 are shown below.
The values the rows starting from “Blank (SFU)” and ending at “Pept-1/2/3 (150)” are all spot forming unit (SFU) values. The values in the parentheses in the first column are the concentration of each peptide in micrograms that were added to the PBMCs (e.g., Pept-1 50=50 micrograms of Peptide 1, Pept-1/2/3 50=50 micrograms of each of Peptide 1, Peptide 2, and Peptide 3). Pept-1=Peptide 1, Pept-2=Peptide 2, Pept-3=Peptide 3, the amino acid identities of which are mentioned above. D-Gli=deamidated gliadin. WT-Gli=wild-type gliadin. D-Glut=deamidated gluten. WT-Glut=wild-type gluten.
IFNγ ELISpot responses in 9 older children (11-17 yo) and 6 younger children (3-10 yo) were stimulated by the mixture of peptides 1, 2, and 3 described in Example 1 (each peptide at a concentration of 25 ug/mL) or stimulated by deamidated gliadin (100 ug/mL) after 3-day wheat challenge (r2=0.8, p<0.0001). The ELISpot responses were similar using either the peptide mixture of the deamidated gliadin (FIG. 1).

Sequence: ELQPFPQPELPYPQPQ ([pGlu]LQPFPQPELPYPQPQ-NH2) [Peptide 1]
- most active peptides in gliadin for children: most active
- SFU, IFNγ ELISpot (Subject B, 5.0 × 10^5 cells per well, 25 micrograms, listed as Pept-1): 4 SFU and 3 SFU
- SFU, IFNγ ELISpot (Subject B, 5.0 × 10^5 cells per well, 100 micrograms, listed as Pept-1): 3 SFU and 2 SFU
- SFU, IFNγ ELISpot (Subject C, 5.0 × 10^5 cells per well, 25 micrograms, listed as Pept-1): 10 SFU and 5 SFU
- SFU, IFNγ ELISpot (Subject C, 5.0 × 10^5 cells per well, 50 micrograms, listed as Pept-1): 6 SFU and 5 SFU
- SFU, IFNγ ELISpot (Subject D, 4.0 × 10^5 cells per well, 25 micrograms, listed as Pept-1): 28 SFU and 32 SFU
- SFU, IFNγ ELISpot (Subject D, 4.0 × 10^5 cells per well, 50 micrograms, listed as Pept-1): 23 SFU and 31 SFU
- SFU, IFNγ ELISpot (Subject D, 4.0 × 10^5 cells per well, 100 micrograms, listed as Pept-1): 32 SFU and 25 SFU
- SFU, IFNγ ELISpot (Subject E, 5.0 × 10^5 cells per well, 25 micrograms, listed as Pept-1): 177 SFU and 139 SFU
- SFU, IFNγ ELISpot (Subject E, 5.0 × 10^5 cells per well, 50 micrograms, listed as Pept-1): 160 SFU and 144 SFU
- SFU, IFNγ ELISpot (Subject E, 5.0 × 10^5 cells per well, 100 micrograms, listed as Pept-1): 139 SFU and 153 SFU
- SFU, IFNγ ELISpot (Subject F, 5.0 × 10^5 cells per well, 25 micrograms, listed as Pept-1): 151 SFU and 146 SFU
- SFU, IFNγ ELISpot (Subject F, 5.0 × 10^5 cells per well, 50 micrograms, listed as Pept-1): 186 SFU and 147 SFU
- SFU, IFNγ ELISpot (Subject F, 5.0 × 10^5 cells per well, 100 micrograms, listed as Pept-1): 166 SFU and 138 SFU
- SFU, IFNγ ELISpot (Subject G, 4.0 × 10^5 cells per well, 25 micrograms, listed as Pept-1): 8 SFU and 14 SFU
- SFU, IFNγ ELISpot (Subject G, 4.0 × 10^5 cells per well, 50 micrograms): 10 SFU
- SFU, IFNγ ELISpot (Subject H, 3.5 × 10^5 cells per well, 25 micrograms, listed as Pept-1): 14 SFU and 13 SFU
- SFU, IFNγ ELISpot (Subject H, 3.5 × 10^5 cells per well, 50 micrograms): 8 SFU
- SFU, IFNγ ELISpot (Subject H, 3.5 × 10^5 cells per well, 100 micrograms, listed as Pept-1): 9 SFU and 8 SFU
- SFU, IFNγ ELISpot (Subject I, 5.0 × 10^5 cells per well, 25 micrograms, listed as Pept-1): 6 SFU and 7 SFU
- SFU, IFNγ ELISpot (Subject J, 5.0 × 10^5 cells per well, 25 micrograms, listed as Pept-1): 103 SFU and 109 SFU
- SFU, IFNγ ELISpot (Subject J, 5.0 × 10^5 cells per well, 50 micrograms, listed as Pept-1): 107 SFU and 92 SFU
- SFU, IFNγ ELISpot (Subject J, 5.0 × 10^5 cells per well, 100 micrograms, listed as Pept-1): 109 SFU and 111 SFU
- SFU, IFNγ ELISpot (Subject K, 3.2 × 10^5 cells per well, 25 micrograms, listed as Pept-1): 33 SFU and 28 SFU
- SFU, IFNγ ELISpot (Subject K, 3.2 × 10^5 cells per well, 50 micrograms, listed as Pept-1): 28 SFU and 20 SFU
- SFU, IFNγ ELISpot (Subject K, 3.2 × 10^5 cells per well, 100 micrograms, listed as Pept-1): 24 SFU and 38 SFU
- SFU, IFNγ ELISpot (Subject L, 3.5 × 10^5 cells per well, 25 micrograms, listed as Pept-1): 10 SFU and 9 SFU
- SFU, IFNγ ELISpot (Subject L, 3.5 × 10^5 cells per well, 100 micrograms, listed as Pept-1): 14 SFU and 7 SFU
- SFU, IFNγ ELISpot (Subject M, 2.3 × 10^5 cells per well, 25 micrograms, listed as Pept-1): 34 SFU and 18 SFU
- SFU, IFNγ ELISpot (Subject M, 2.3 × 10^5 cells per well, 50 micrograms, listed as Pept-1): 32 SFU and 30 SFU
- SFU, IFNγ ELISpot (Subject M, 2.3 × 10^5 cells per well, 100 micrograms, listed as Pept-1): 45 SFU and 40 SFU
- SFU, IFNγ ELISpot (Subject N, 2.4 × 10^5 cells per well, 25 micrograms, listed as Pept-1): 4 SFU and 6 SFU
- SFU, IFNγ ELISpot (Subject N, 2.4 × 10^5 cells per well, 100 micrograms, listed as Pept-1): 5 SFU and 3 SFU
- SFU, IFNγ ELISpot (Subject P, 3.0 × 10^5 cells per well, 0.1 micrograms, listed as Pept-1): 16 SFU and 15 SFU
- SFU, IFNγ ELISpot (Subject P, 3.0 × 10^5 cells per well, 0.5 micrograms, listed as Pept-1): 21 SFU and 24 SFU
- SFU, IFNγ ELISpot (Subject P, 3.0 × 10^5 cells per well, 1 micrograms, listed as Pept-1): 49 SFU and 31 SFU
- SFU, IFNγ ELISpot (Subject P, 3.0 × 10^5 cells per well, 2.5 micrograms, listed as Pept-1): 45 SFU
- SFU, IFNγ ELISpot (Subject Q, 3.0 × 10^5 cells per well, 0.1 micrograms, listed as Pept-1): 12 SFU and 18 SFU
- SFU, IFNγ ELISpot (Subject Q, 3.0 × 10^5 cells per well, 0.5 micrograms, listed as Pept-1): 34 SFU and 32 SFU
- SFU, IFNγ ELISpot (Subject Q, 3.0 × 10^5 cells per well, 1 micrograms, listed as Pept-1): 45 SFU and 36 SFU
- SFU, IFNγ ELISpot (Subject R, 3.0 × 10^5 cells per well, 0.1 micrograms, listed as Pept-1): 12 SFU and 16 SFU
- SFU, IFNγ ELISpot (Subject R, 3.0 × 10^5 cells per well, 0.5 micrograms, listed as Pept-1): 21 SFU and 26 SFU
- SFU, IFNγ ELISpot (Subject R, 3.0 × 10^5 cells per well, 1 micrograms, listed as Pept-1): 22 SFU and 21 SFU
- SFU, IFNγ ELISpot (Subject S, 3.0 × 10^5 cells per well, 0.1 micrograms, listed as Pept-1): 2 SFU and 4 SFU
- SFU, IFNγ ELISpot (Subject S, 3.0 × 10^5 cells per well, 0.5 micrograms, listed as Pept-1): 1 SFU and 2 SFU
- SFU, IFNγ ELISpot (Subject S, 3.0 × 10^5 cells per well, 1 micrograms, listed as Pept-1): 1 SFU and 2 SFU
- SFU, IFNγ ELISpot (Subject T, 3.0 × 10^5 cells per well, 0.1 micrograms, listed as Pept-1): 20 SFU and 18 SFU
- SFU, IFNγ ELISpot (Subject T, 3.0 × 10^5 cells per well, 0.5 micrograms, listed as Pept-1): 34 SFU and 31 SFU
- SFU, IFNγ ELISpot (Subject T, 3.0 × 10^5 cells per well, 1 micrograms, listed as Pept-1): 55 SFU and 60 SFU
- SFU, IFNγ ELISpot (Subject U, 3.0 × 10^5 cells per well, 0.1 micrograms, listed as Pept-1): 6 SFU and 7 SFU
- SFU, IFNγ ELISpot (Subject U, 3.0 × 10^5 cells per well, 0.5 micrograms, listed as Pept-1): 18 SFU and 20 SFU
- SFU, IFNγ ELISpot (Subject U, 3.0 × 10^5 cells per well, 1 micrograms, listed as Pept-1): 33 SFU and 24 SFU
- T cell response in PBMC samples from children after gluten challenge: induce a T cell response

Sequence: EPEQPIPEQPQPYPQQ ([pGlu]PEQPIPEQPQPYPQQ-NH2; SMILES CC[C@H](C)[C@H](NC(=O)[C@@H]1CCCN1C(=O)[C@H](CCC(N)=O)NC(=O)[C@H](CCC(=O)O)NC(=O)[C@@H]1CCCN1C(=O)[C@@H]1CCC(=O)N1)C(=O)N1CCC[C@H]1C(=O)N[C@@H](CCC(=O)O)C(=O)N[C@@H](CCC(N)=O)C(=O)N1CCC[C@H]1C(=O)N[C@@H](CCC(N)=O)C(=O)N1CCC[C@H]1C(=O)N[C@@H](Cc1ccc(O)cc1)C(=O)N1CCC[C@H]1C(=O)N[C@@H](CCC(N)=O)C(=O)N[C@@H](CCC(N)=O)C(N)=O) [Peptide 3]
- SFU, IFNγ ELISpot (Subject A, 5.0 × 10^5 cells per well, 50 micrograms): 0 SFU
- SFU, IFNγ ELISpot (Subject C, 5.0 × 10^5 cells per well, 50 micrograms): 3 SFU
- SFU, IFNγ ELISpot (Subject D, 4.0 × 10^5 cells per well, 25 micrograms, listed as Pept-3): 2 SFU and 4 SFU
- SFU, IFNγ ELISpot (Subject D, 4.0 × 10^5 cells per well, 50 micrograms): 2 SFU
- SFU, IFNγ ELISpot (Subject D, 4.0 × 10^5 cells per well, 100 micrograms, listed as Pept-3): 2 SFU and 4 SFU
- SFU, IFNγ ELISpot (Subject E, 5.0 × 10^5 cells per well, 25 micrograms): 3 SFU
- SFU, IFNγ ELISpot (Subject E, 5.0 × 10^5 cells per well, 50 micrograms): 6 SFU
- SFU, IFNγ ELISpot (Subject E, 5.0 × 10^5 cells per well, 100 micrograms, listed as Pept-3): 3 SFU and 4 SFU
- SFU, IFNγ ELISpot (Subject G, 4.0 × 10^5 cells per well, 25 micrograms): 0 SFU
- SFU, IFNγ ELISpot (Subject H, 3.5 × 10^5 cells per well, 25 micrograms, listed as Pept-3): 1 SFU and 2 SFU
- SFU, IFNγ ELISpot (Subject H, 3.5 × 10^5 cells per well, 50 micrograms, listed as Pept-3): 2 SFU and 4 SFU
- SFU, IFNγ ELISpot (Subject I, 5.0 × 10^5 cells per well, 50 micrograms): 1 SFU
- SFU, IFNγ ELISpot (Subject J, 5.0 × 10^5 cells per well, 25 micrograms, listed as Pept-3): 4 SFU and 2 SFU
- SFU, IFNγ ELISpot (Subject J, 5.0 × 10^5 cells per well, 50 micrograms, listed as Pept-3): 2 SFU and 3 SFU
- SFU, IFNγ ELISpot (Subject J, 5.0 × 10^5 cells per well, 100 micrograms, listed as Pept-3): 1 SFU and 2 SFU
- SFU, IFNγ ELISpot (Subject K, 3.2 × 10^5 cells per well, 25 micrograms, listed as Pept-3): 2 SFU and 3 SFU
- SFU, IFNγ ELISpot (Subject K, 3.2 × 10^5 cells per well, 50 micrograms, listed as Pept-3): 2 SFU and 1 SFU
- SFU, IFNγ ELISpot (Subject L, 3.5 × 10^5 cells per well, 25 micrograms): 1 SFU
- SFU, IFNγ ELISpot (Subject M, 2.3 × 10^5 cells per well, 25 micrograms): 0 SFU
- SFU, IFNγ ELISpot (Subject M, 2.3 × 10^5 cells per well, 100 micrograms): 0 SFU
- SFU, IFNγ ELISpot (Subject N, 2.4 × 10^5 cells per well, 50 micrograms, listed as Pept-3): 2 SFU and 1 SFU
- SFU, IFNγ ELISpot (Subject N, 2.4 × 10^5 cells per well, 100 micrograms): 0 SFU
- SFU, IFNγ ELISpot (Subject P, 3.0 × 10^5 cells per well, 50 micrograms, listed as Pept-3): 8 SFU and 6 SFU
- SFU, IFNγ ELISpot (Subject Q, 3.0 × 10^5 cells per well, 50 micrograms, listed as Pept-3): 1 SFU and 2 SFU
- SFU, IFNγ ELISpot (Subject R, 3.0 × 10^5 cells per well, 50 micrograms, listed as Pept-3): 12 SFU and 9 SFU
- SFU, IFNγ ELISpot (Subject W, 3.0 × 10^5 cells per well, 50 micrograms): 8 SFU
- SFU, IFNγ ELISpot (Subject Y, 2.29 × 10^5 cells per well, 50 micrograms): 3 SFU
- T cell response in PBMC samples from children after gluten challenge: induce a T cell response
